# B1: IL-12: Proinflammatory Th1 cytokine interleukin-12 (protein, UniProt P29459 23-219; P29460 23-328, looked up)
# Interleukin-12 subunit alpha: RNLPVATPDPGMFPCLHHSQNLLRAVSNMLQKARQTLEFYPCTSEEIDHEDITKDKTSTVEACLPLELTKNESCLNSRETSFITNGSCLASRKTSFMMALCLSSIYEDLKMYQVEFKTMNAKLLMDPKRQIFLDQNMLAVIDELMQALNFNSETVPQKSSLEEPDFYKTKIKLCILLHAFRIRAVTIDRVMSYLNAS
# Interleukin-12 subunit beta: IWELKKDVYVVELDWYPDAPGEMVVLTCDTPEEDGITWTLDQSSEVLGSGKTLTIQVKEFGDAGQYTCHKGGEVLSHSLLLLHKKEDGIWSTDILKDQKEPKNKTFLRCEAKNYSGRFTCWWLTTISTDLTFSVKSSRGSSDPQGVTCGAATLSAERVRGDNKEYEYSVECQEDSACPAAEESLPIEVMVDAVHKLKYENYTSSFFIRDIIKPDPPKNLQLKPLKNSRQVEVSWEYPDTWSTPHSYFSLTFCVQVQGKSKREKKDRVFTDKTSATVICRKNASISVRAQDRYYSSSWSEWASVPCS
# Columns and labels:
# [1] = mouse, in vivo; cited from earlier work
# [2] = cited from earlier work
# [3] = tested on: glioblastoma cells; conditions: 2 h after injection; cited from earlier work
# [4] = tested on: cancer cells; conditions: cited from earlier work
# [5] = tested on: DNA; conditions: cited from earlier work
# [6] = tested on: tumor immunocytes; experiment: tumor immunocytes by flow cytometry after IL-12; type: in vivo; conditions: 24 h after treatment
# Source text: FIGS. 21A-B. Tumor immunocytes. A) Flow cytometry dot blots showing gating for myeloid and T cell populations. B) Percent immunocytes in control vs IL-12 treated tumors.
# Tumor phenotyping. Flow cytometry and immunohistochemistry are used to characterize PD-L1 expression and the presence of effector and regulatory T cells, myeloid and DC, vascularity and stromal cells in tumors and lymphatic tissue. Immunosuppressive regulators in the tumor include T regulatory (Treg) and […] (MDSC). Tregs (CD4^+/FoxP3^+) and MDSC [CD11b^+/Gr-1(Ly6-CIG)^+] suppress effective antitumor immune responses. CD4^+ and CD8^+ T cells are the primary adaptive immune cell mediators within the tumor and the proportion of T cell subsets and DC present in the tumor plays a critical role in tumor rejection. […] Single cell suspensions are prepared from tumors and spleen. After Fc receptor blockade with anti-CD16/CD32 antibodies in 1% mouse serum/1 mM EDTA, cells are permeabilized for intracellular staining or stained directly with antibodies identifying discrete immune cell populations, as described below. […] Specificity of binding to naïve or memory/effector cells is evaluated using fluorescent antibodies that recognize CD45RA, CCR7, and FOXP3. […] Apoptotic tumor cells are detected using DeadEnd Colorimetric TUNEL System, and proliferating cells will be identified using Ki-67. […]
# [7] = tested on: 4T1 tumor; experiment: 19F MRI of 4T1 tumor infiltration by myeloid cells (V-Sense); type: in vivo; conditions: 48 h post intratumoral injection, compared to PBS
# Experimental: FIG. 17. MR imaging of 4T1 tumor infiltration by myeloid cells. The perfluorocarbon emulsion V-Sense was injected intravascularly and carrier macrophages were imaged by 19F MRI 48 h post control or IL-12 intraturrioral injection.
# V-sense is a commercial ^19F-perfluorocarbon emulsion used to track macrophage infiltration into inflammatory tissues. Ahrens et al. (2011) successfully quantified V-sense in inflamed tissues of the central nervous system in an […] model of allergic encephalomyelitis, which they correlated with immunohistochemistry to confirm co-localization of V-sense emulsion droplets and macrophages. Hitchens et al. (2011) detected V-sense labeled macrophages in a model of cardiac allograft rejection. In FIG. 12, the ^19F contrast in tumors is shown based on infiltration of V-sense containing macrophages. In vitro fluorescent imaging confirmed V-sense (red) uptake by RAW macrophages (FIG. 15). […] The color spectrum indicates the concentration of V-sense, which is analogous to phagocytic myeloid cell density.
molecule,measurement,setting,value
"COc1cccc2c1C(=O)c1c(O)c3c(c(O)c1C2=O)C[C@@](O)(C(=O)CO)C[C@@H]3O[C@H]1C[C@H](N)[C@H](O)[C@H](C)O1 [DOX, doxorubicin]",MTD,[1],6 mg/kg
same,IC50,[2],0.08 mg/L
"O=c1[nH]c(=O)n([C@@H]2O[C@H](CO)[C@@H](O)[C@@H]2F)cc1[124I] [^124I-FIAU, ^124I-2′-fluoro-2′-deoxy-5-iodo-1-beta-D-arabinofurariosyluracil]",increase in reporter expression,[3],28 fold
"N.N.[Cl][Pt][Cl] [cisplatin, cis-diamminedichloroplatinum (II)]",number of ICD hallmarks stimulated,[4],2
same,DNA adduct formation relative to oxaliplatin,[5],10 times
B1,CD4+ and CD8+ T cells in the tumor,[6],increases CD4^+ and CD8^+ T cells
same,MDSC in the tumor,[6],decreases MDSC
same,frequency of phagocytic cells within the tumor periphery,[7],increased the frequency of phagocytic cells

# Source: patent US20210330696A1, “A HIGH CAPACITY PLATFORM FOR IMMUNOGENIC CANCER CELL DEATH” (priority 2018, published 2021)
